Assay results taken from publication PMC8869097, “Benzothiazole Derivatives as Multifunctional Antioxidant Agents for Skin Damage: Structure–Activity Relationship of a Scaffold Bearing a Five-Membered Ring System” (Antioxidants, 2022).
In brackets after ≈: the same amount, converted by molar mass.

Assays:
Microsporum canis = assay: Antidermatophyte activity, plaque growth inhibition; type: cell-based, Microsporum canis CBS 131,110; details: 100 μg/mL, SDA, read-out: % Inhibition Growth M. canis
Procedure: (§1) The dermatophytes used in this study were Epidermophyton floccosum var. floccosum (Netherlands) CBS 358.93 strain, Trichophyton tonsurans (Netherlands) CBS 483.76 strain, Trichophyton mentagrophytes (Netherlands) CBS 160.66 strain, Microsporum canis (Iran) CBS 131,110 strain, and Microsporum gypseum (Iran) CBS 130,948 strain. All dermatophytes were maintained at 4 °C as agar slants on SDA. Candida albicans (ATCC 10231) was maintained at 4 °C on SDA plate.
(§2) The in vitro antifungal activity against the five selected dermatophytes was evaluated, as previously described, using the plaque growth inhibition method. All compounds were evaluated at the final concentration of 100 µg/mL. The percentages of growth inhibition according to Equation (5) were calculated as the average of three different experiments. I = [(C − T)/C] × 100%,(5) where I is the percentage value of growth inhibition, C is the measure of the diameter of the control circular mycelial inoculum (mm) and T is the extended diameter of the treated mycelial inoculum (mm).
(§3) All synthesized benzothiazole derivatives were evaluated to evaluate their in vitro antifungal activity against the five pathogenic dermatophytes that cause the most common dermatomycoses: Microsporum gypseum, Microsporum canis, Trichophyton mentagrophytes, Trichophyton tonsurans and Epidermophyton floccosum. All compounds were tested at a concentration of 100 µg/mL in DMSO, to evaluate the ability to inhibit the growth of dermatophyte cultures in Sabouraud Dextrose Agar (SDA). Briefly, room temperature incubation was performed and dermatophyte inhibition assessed by measuring the colony diameter at each disc for 7 days. The results are shown in Table 3 and were determined as the average of three different experiments.

Microsporum gypseum = assay: as above; type: cell-based, Microsporum gypseum CBS 130,948; details: Nannizzia gypsea; 100 μg/mL, SDA; read-out: % Inhibition Growth M. gypseum
Procedure: as §1, §2, §3

[1] = test system: Trichophyton mentagrophytes; assay: as above; type: cell-based, Trichophyton mentagrophytes CBS 160.66; details: 100 μg/mL, SDA, read-out: % Inhibition Growth T. mentagrophytes
Procedure: as §1, §2, §3

[2] = test system: Candida albicans (ATCC 10231); assay: Anti-Candida albicans activity, broth microdilution MIC; type: cell-based; details: Candida albicans, ATCC10231; 24 h of incubation
Procedure: as §1
The suspension of Candida albicans consists of the dispersion of an aliquot in 5 mL of sterilized water. The compounds and fluconazole, used as a positive control, were solubilized in DMSO (12.80 mg/mL) as stock solutions. Minimum inhibitory concentration (MIC) was performed by the broth microdilution method according to the approved standard M27-A3, 2008 [NCCLS] of the Clinical and Laboratory Standards Institute/National Committee for Clinical Laboratory Standards (CLSI/NCCLS), as described previously.
Candida is a strain of fungi known to transmit infections to different parts of the human body, including the skin [43], which is why the synthesized compounds have also been tested against Candida Albicans (ATCC 10231). For each of them the minimum inhibitory concentration (MIC) was determined by the broth microdilution method using RPMI 1640 + MOPS as culture medium. […] Fluconazole was used as a positive control drug. […] Similarly to the results observed on dermatophytes, therefore, the unsubstituted compounds in position 6 of benzimidazole gave activity on yeasts, except for compound 8a.

Epidermophyton floccosum = assay: Antidermatophyte activity, plaque growth inhibition; type: cell-based, Epidermophyton floccosum var. floccosum CBS 358.93; details: 100 μg/mL, SDA, read-out: % Inhibition Growth E. floccosum
Procedure: as §1, §2, §3

Trichophyton tonsurans = assay: as above; type: cell-based, Trichophyton tonsurans CBS 483.76; details: 100 μg/mL, SDA, read-out: % Inhibition Growth T. tonsurans
Procedure: as §1, §2, §3

`OC(Cn1cncn1)(Cn1cncn1)c1ccc(F)cc1F` [Fluconazole, reference compound] was tested. Which inhibition at 100 µg/mL (Microsporum canis) did it give?
Its inhibition at 100 µg/mL is 30.1 ± 0.4%.

And the inhibition at 100 µg/mL (Microsporum gypseum)?
The inhibition at 100 µg/mL was 18.2 ± 0.9%.

What about the inhibition at 100 µg/mL [1] of the same compound?
Its inhibition at 100 µg/mL is 3.75 ± 0.24%.

What about the MIC [2] of the same compound?
Its MIC is 0.5 µg/mL (≈ 1.63 µM).

What about the inhibition at 100 µg/mL (Epidermophyton floccosum) of the same compound?
Its inhibition at 100 µg/mL is 0.12 ± 0.004%.

And the inhibition at 100 µg/mL (Trichophyton tonsurans)?
Its inhibition at 100 µg/mL is 18.7 ± 0.62%.
